One test concerns the target ADRβ1 receptors (Homo sapiens, UniProt P08588). Nature of the test: ADRβ1 receptor antagonist screening (half maximal inhibitory concentration). The format is binding. From the text: Based on these inventive discoveries, a screening method for determining at least one test agent effective for modifying the appearance of pigmented skin is provided. The method comprises contacting a cell, a cell culture, or bulk cells with the test agent, wherein the cell, the cell culture, or the bulk cells comprise ADRβ1 receptors, and determining based on the binding interaction of the test agent with the ADRβ1 receptors whether the test agent is an effective ADRβ1 receptor antagonist suitable for modifying the appearance of pigmented skin, wherein a test agent is considered to be an effective ADRβ1 receptor antagonist when it defines a half maximal inhibitory concentration of less than about 1000 ppm.
The method further comprises determining whether test agents are effective for improving the appearance of pigmented skin if the test agent is an antagonist of the ADRβ1 receptors. In one embodiment, the test agent may be identified as an ADRβ1 receptor antagonist if the test agent defines a half maximal inhibitory concentration (IC50) of less than about 1000 ppm. In further embodiments, the ADRβ1 receptor antagonist defines a half maximal inhibitory concentration of less than about 100 ppm, or less than about 50 ppm. By utilizing this metric of maximal inhibitory concentration, it is possible to correlate the antagonistic activity of the ADRβ1 receptor antagonists with an ability of the ADRβ1 receptor antagonists to improve the appearance of hyper-pigmented spots in human skin. In further embodiments, when the ADRβ1 receptor antagonists bind to the ADRβ1 receptors, a luminescent reference signal may be generated, which may be measured by a luminometer, a fluorescence plate reader, or a fluorometer.
As shown below in Table 2, the present inventors have further recognized that modifying a test agent from a peptide to a palmitoylated peptide greatly improves its efficacy as an ADRβ1 inhibitor.

A further test concerns B16-F1 cells. Nature of the test: B16 cell melanin synthesis assay. The format is cell-based, murine. As to conditions: FIG. 4; for effect on melanin synthesis (% MS): increasing concentration (w/v %). From the text:
Determining test agents suitable as ADRβ1 antagonists, ADRβ2 antagonists, or combinations thereof may utilize a melanin synthesis assay selected from the group consisting of a B16 cell assay or a skin model. The B16-F1 cells, which are murine melanoma cells obtained from American Tissue Culture Collection (ATCC), contain the synthetic machinery for melanin production and respond to some benchmark whitening/tanning agents. The following experiment depicts one exemplary method of determining the effect of test agents on melanin synthesis. In the experiment, 0.5 mL of B16-F1 cells are added to 29.5 ml of B16-F1 culture media to 2 separate T-150 flasks, and grown to near (˜80% ) confluency. The culture media B16-F1 comprises the following components as shown in Table 1 below: The cells from the T-150 flasks were trypsinized and counted with a hemacytometer. Then, cell vials (1×10^6 cell aliquots) were frozen in a mixture comprising 95% B16-F1 culture medium and 5% DMSO (Dimethyl sulfoxide) and placed in liquid Nitrogen. All cell culture reagents (except trypsin) were heated in a 37° C. water bath. On day zero, 29 mL of B16-F1 culture media was placed into a T-150 flask at 37° C. Then, a vial of the frozen cells was obtained, thawed in a 37° C. water bath, and placed in the T-150 flask. The flask was agitated to mix the cells with the media, and then the flask was incubated for 3 days at 37° C. in a humidified environment comprising 5% CO2. On day 3, the cells from the flask were trypsinized and the cell density was determined. At which point, the cells were split into a 96-well plate with 2,500 cells per well. At day 5, the cells were treated with the test agents. On day 7, the cells were assayed for melanin production and toxicity. […] As stated above, ADRβ1 and ADRβ2 stimulation result in elevated cAMP levels which drive tyrosinase production in known melanogenesis pathways.

In the next test the test system is human skin explants. In words: Pigmentation gene expression in human skin explants. The format is cell-based. As to conditions: compared with Stem Cell Factor & Endothelin (Endo-SCF), FIG. 5. From the text:
FIG. 5 is a graphical illustration depicting the effect of dobutamine on human skin explants.
As stated above, ADRβ1 and ADRβ2 stimulation result in elevated cAMP levels which drive tyrosinase production in known melanogenesis pathways.

ADRβ1 receptors, sequence (P08588 whole entry): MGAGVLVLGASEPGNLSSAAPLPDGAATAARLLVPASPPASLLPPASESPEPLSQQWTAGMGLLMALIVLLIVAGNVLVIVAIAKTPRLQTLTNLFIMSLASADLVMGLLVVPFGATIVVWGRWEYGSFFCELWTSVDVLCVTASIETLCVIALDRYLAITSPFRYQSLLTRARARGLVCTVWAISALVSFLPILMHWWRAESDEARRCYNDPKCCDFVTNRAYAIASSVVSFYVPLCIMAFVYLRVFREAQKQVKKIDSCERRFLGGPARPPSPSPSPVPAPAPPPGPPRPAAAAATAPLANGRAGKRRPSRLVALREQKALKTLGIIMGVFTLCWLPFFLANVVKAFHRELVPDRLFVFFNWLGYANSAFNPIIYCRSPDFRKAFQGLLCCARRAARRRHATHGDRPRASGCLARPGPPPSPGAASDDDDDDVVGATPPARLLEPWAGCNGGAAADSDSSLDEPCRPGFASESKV

On to palGHK, for which the “ADRβ1 IC 50 (ppm)” value on ADRβ1 receptors is 3.3 ppm.
Take “AcetylGQPR [acetyl-modified GQPR peptide]”: on ADRβ1 receptors, the “ADRβ1 IC 50 (ppm)” value turned out to be 45 ppm.
Consider `CC(C)NCC(O)c1ccc(O)c(O)c1` (stereo not shown) [isoprenaline], for which the “melanin synthesis (% MS)” value in the test with B16-F1 cells (as the concentration of isoprenaline increased) is listed as about 300%. Further, the “effect on melanin synthesis (% MS)” value in the test with B16-F1 cells is listed as “increases the melanin synthesis”.
As to `CC(CCc1ccc(O)cc1)NCCc1ccc(O)c(O)c1` (stereo not shown) [dobutamine], in the test on human skin explants, the pigmentation gene expression result is reported as “induces pigmentation gene expression in human skin explants more than the paracrine factors”. For the same compound, in the test on B16-F1 cells, the “effect on melanin synthesis (% MS)” value was “increases the melanin synthesis”.
As to GHK, the “ADRβ1 IC 50 (ppm)” value on ADRβ1 receptors was 1100 ppm.
Take GQPR: the “ADRβ1 IC 50 (ppm)” value on ADRβ1 receptors is recorded as 1200 ppm.
Regarding palGQPR [palmitoylated GQPR peptide], the “ADRβ1 IC 50 (ppm)” value at ADRβ1 receptors is reported as 0.23 ppm.
Same read-out and setting: then AcetylGHK, with 45 ppm.

The values are drawn from patent publication US10267796B2, “Screening methods of modulating adrenergic receptor gene expressions implicated in melanogenesis” (The Procter & Gamble Company, priority 2010, dated 2019).
